Source: ChEMBL document CHEMBL4706652, “Synthesis of 4-(3-oxo-3-phenylpropyl)morpholin-4-ium chloride analogues and their inhibitory activities of nitric oxide production in lipopolysaccharide-induced BV2 cells” (Bioorg Med Chem Lett, 2021)
pIC50: −log10 of the molar value. Counter-ions that a name gives are not always drawn.

Columns and labels:
[1] = Inhibition of LPS-induced nitric oxide production in […] BV-2 cells at 20 uM measured after 24 hrs by Griess reagent assay relative to control; type: functional, Mus musculus; details: for inhibition at 20 µM: BV-2, 24 h
[2] = Cytotoxicity against LPS-induced […] BV-2 cells assessed as cell viability at 20 uM measured after 24 hrs by MTT assay relative to control; type: cell-based; details: for viability at 24 h, 20 µM: LPS-induced BV-2 cells, read-out: Activity
cells = details: Homo sapiens, BV-2, 24 h, read-out: INH
Description: Inhibition of LPS-induced nitric oxide production in human BV-2 cells at 10 uM measured after 24 hrs by Griess reagent assay relative to control

[3] = (§1) Inhibition of LPS-induced nitric oxide production in […] BV-2 cells measured after 24 hrs by Griess reagent assay; type: functional, cell-based; details: BV-2, 24 h
[4] = Inhibition of LPS-induced nitric oxide production in […] BV-2 cells at 12.5 to 50 uM measured after 24 hrs by Griess reagent assay relative to control; type: functional; details: dose 12.5-50 µM
[5] = Cytotoxicity against LPS-induced […] BV-2 cells assessed as cell viability at 12.5 to 50 uM measured after 24 hrs by MTT assay; type: cell-based; details: bv-2, 24 h, dose 12.5-50 µM
BV-2 [6] = assay: as §1; type: functional, cell-based
BV-2 [7] = assay: Inhibition of LPS-induced nitric oxide production in […] BV-2 cells assessed as decrease in iNOS mRNA expression pretreated with LPS for 1 hr and measured after 6 hrs by RT-PCR analysis; type: functional, cell-based; details: dose 2-20 µM, time 7.0 hrs
BV-2 [8] = assay: Inhibition of LPS-induced nitric oxide production in […] BV-2 cells assessed as decrease in iNOS protein expression pretreated with LPS for 1 hr and measured after 18 hrs by immunoblot analysis; type: functional, cell-based; details: dose 2-20 µM, time 19.0 hrs

Row | SMILES | inhibition at 20 µM [1] | viability at 24 h, 20 µM [2] | also measured
1 | Cc1ccc(C(=O)CCN2CCOCC2)cc1 | 36% | 100% | –
2 | O=C(CCN1CCOCC1)c1ccc(F)cc1 | 35.2% | 95% | –
3 | O=C(CCN1CCOCC1)c1cccc(C(F)(F)F)c1 | 44.6% | 100% | –
4 | O=C(CCN1CCOCC1)c1ccc(Cl)cc1 | 40.3% | 100% | –
5 | COc1ccc(C(=O)CCN2CCOCC2)cc1 | 33.3% | 100% | –
6 | O=C(Cc1ccccc1)CN1CCOCC1 | 17.4% | 100% | –
7 | CNCCC(Oc1ccc(C(F)(F)F)cc1)c1ccccc1 (centres undefined) [FLUOXETINE HYDROCHLORIDE] | – | – | inhibition at 10 µM (cells): 31.2%
8 | O=C(CCN1CCOCC1)c1ccc(O)cc1 | 26.5% | 99% | –
9 | O=C(CN1CCOCC1)C(=O)c1ccccc1 | 19.2% | 100% | –
10 | O=C(CCN1CCOCC1)c1ccc(C(F)(F)F)cc1 | 50.3% | 96.1% | –
11 | O=C(CCN1CCOCC1)c1ccc([N+](=O)[O-])cc1 | 73.1% | 98.3% | –
12 | O=C(CCN1CCOCC1)c1ccccc1 | 31.8% | 99.8% | –
13 | O=C(CCN1CCOCC1)c1ccc(I)cc1 | 41.6% | 89.4% | –
14 | CN(C)c1ccc(C(=O)CCN2CCOCC2)cc1 | 32.8% | 100% | –
15 | O=C(CCN1CCOCC1)c1ccc(Br)cc1 | 41.6% | 100% | –
16 | Nc1ccc(C(=O)CCN2CCOCC2)cc1 | 25.2% | 100% | –
17 | O=C(CC(=O)N1CCOCC1)c1ccccc1 | 20.1% | 99.7% | –
18 | Cl.O=C(CCN1CCOCC1)c1ccccc1 | – | – | pIC50 [3]: < 4.30; inhibition (INH) [1]: 29.3%; inhibition (INH) [4]: 49%; Activity ([2]; bv-2, 24 h, 20 µM): 96.7%; Activity [5]: Non-Toxic
19 | O=C(CCN1CCOCC1)c1ccccc1C(F)(F)F | 78.3% | 100% | inhibition (BV-2 [6]): Dose-dependent effect; pIC50 [3]: 5.07; inhibition (BV-2 [7]): Dose-dependent effect; inhibition (BV-2 [8]): Dose-dependent effect
